One data set deals with BALB/c mice. The data set can be described thus: Glycemia after oral insulin solution (not seized in polymer) in BALB/c mice. The data set is classed as in vivo. To be noted: for Glycemia: oral insulin solution 4 IU/kg, group averages (4 groups of 5 mice). The protocol: Excipients: Zinc Chloride, glycerol, metacresol, Sodium hydroxide, Chloridic acid, and water suitable for injections. • The irradiation conditions ensuring the best quality of the final product has been described. • Its release or liberation under laboratory conditions and in laboratory animals has been studied. • Bioavailability in laboratory animals, has been studied. • Laboratory experimental pharmacological steps are included. The determination of glycemia in blood is performed employing the following apparatus:
Measuring type device: Accu-Chek Active
The measured values listed in the table are shown averaged in FIG. 1.
GLYCEMIA as a function of time, averaged in four groups of BALB/c mice (five mice in each group), to which oral insulin solution (4 IU/kg) was administered (insulin without been seized into polymer).

For data set [1] the following is noted: cited from earlier work.
The conditions of data set [2]: patients under insulin treatment; cited from earlier work.
[3] abbreviates: average action profile after subcutaneous injection.

Consider one substance from patent US8414923B2, “Immobilization of bioactive molecules within a polymeric substrate” (priority 2007, dated 2013).

Values joined by “and” are separate entries in the source; they are usually repeats but may differ in a detail not shown here. Equal entries are not always repeated.

In general, t½ refers to how long it takes for the measured level to halve. Biosynthetic human insulin: the “Change of glycemia in mice” value in the data set with BALB/c mice (30 to 75 minutes after oral administration of insulin solution) is recorded as “slight diminution of glycemia”. The Glycemia with BALB/c mice (time 0 min) was 100 mg/dL and 102 mg/dL and 105 mg/dL; with BALB/c mice (time 15 min), 98 mg/dL and 97 mg/dL and 96 mg/dL; with BALB/c mice (time 30 min), 101 mg/dL and 102 mg/dL and 103 mg/dL and 105 mg/dL; with BALB/c mice (time 60 min), 90 mg/dL and 93 mg/dL and 98 mg/dL and 96 mg/dL; with BALB/c mice (time 90 min), 93 mg/dL and 95 mg/dL and 90 mg/dL and 94 mg/dL; in the data set on BALB/c mice (time 180 min) it was 104 mg/dL and 102 mg/dL and 105 mg/dL and 100 mg/dL. Further, the “Action profile: Duration” value in data set [1] (setting [3]) was 7 to 8 h. Moreover, the “Action profile: Initial” value in data set [1] (setting [3]) is listed as “within the first half hour”. The “Bond to plasmatic proteins” value in data set [1] (except circulating insulin antibodies) is listed as “No significative bond to plasmatic proteins”. In addition, the “Average life (t½) of insulin in the bloodstream” value in data set [1] (in bloodstream) was “only of a few minutes”. Further, the t½ in data set [1] (injected (subcutaneous) insulin, clinical studies, determined by absorption) is 2 to 5 h. In addition, in data set [2], the “Frequency of changes in the levels of glucose in the blood” value is listed as < 1/1000.
